What was measured:
Type in all cases: in vivo
Humulus scandens [1] = test: Herbicidal activity test for indoor pre-emergence soil treatment; conditions: 150 g a.i./ha, visual inspection 21 days after treatment
Method in brief: (§1)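 Pre-emergence soil spray per NY/T 1155.3-2006: weed seeds sown in moistened neutral sandy loam (organic content ≤2%), covered with 0.5–2.0 cm soil, then sprayed 24 h later with a water-diluted 10% emulsifiable concentrate at 150 g(a.i.)/ha. Visual rating after 21 days on a 1–9 scale.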

Amaranthus retroflexus [2] = test: as above; parameters: key: 1-9 levels; higher = more weed remaining vs blank control; conditions: 150 g a.i./ha, visual inspection 21 days after treatment
Method in brief: as §1

Digitaria sanguinalis [3] = test: as above; parameters: key: 1-9 levels; higher = more weed remaining vs blank control; conditions: 150 g a.i./ha, visual inspection 21 days after treatment
Method in brief: as §1

Amaranthus retroflexus [4] = test: Field test for weed control in a corn field; conditions: 150 g a.i./ha, 30 days after treatment
Method in brief: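 Field efficacy trial in a corn field following GB/T 17980.42-2000. Test compounds were formulated as 10% emulsifiable concentrates, diluted in water and sprayed post-emergence when corn had 2 to 5 leaves. Each treatment covered 20 m^2 with 4 replicates. A 25% mesotrione oil dispersion served as control. Damage to Amaranthus retroflexus was rated on a 1-9 scale against untreated blank plots.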

Solanum nigrum = test: Field test for weed control in a corn field; conditions: 150 g a.i./ha, 30 days after treatment
Method in brief: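 Post-emergence weed control was tested in a corn field following GB/T 17980.42-2000. Compounds were made into 10% emulsifiable concentrates, diluted in water and sprayed at 150 g(a.i.)/ha when corn had 2 to 5 leaves after sowing, in 20 m^2 plots with 4 replicates. Effects on Solanum nigrum were graded on a 1-9 scale relative to the blank control area.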

goosegrass = test: Field test for weed control in a corn field; conditions: 150 g a.i./ha, after treatment
Method in brief: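 Weed control efficacy against goosegrass was tested in a corn field following GB/T 17980.42-2000. Compounds formulated as 10% emulsifiable concentrates were diluted in water and sprayed post-emergence at 150 g(a.i.)/ha when corn had 2 to 5 leaves, with 4 replicates of 20 m^2 plots. Herbicidal activity was rated on a 1-9 scale by damage symptoms and severity.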

Portulaca oleracea = test: Field test for weed control in a corn field; conditions: 150 g a.i./ha, after treatment
Method in brief: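 Field efficacy trial in corn following GB/T 17980.42-2000. Test compounds were prepared as 10% emulsifiable concentrates, diluted in water, and sprayed at 150 g(a.i.)/ha when corn had 2 to 5 leaves after sowing. Plots were 20 m^2 with 4 replicates per treatment. Herbicidal activity was scored on a 1-9 scale from weed damage symptoms and severity.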

Convolvulus arvensis = test: Field test for weed control in a corn field; conditions: 150 g a.i./ha, after treatment
Method in brief: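 Field trial of weed control against Convolvulus arvensis in corn, run following GB/T 17980.42-2000. Test agents were formulated as 10% emulsifiable concentrates and sprayed in water at 150 g(a.i.)/ha when corn plants had 2 to 5 leaves. Each treatment was replicated 4 times on 20 m^2 plots, and 25% mesotrione oil dispersion served as the control agent.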

Chenopodium album = test: Field test for weed control in a corn field; conditions: 150 g a.i./ha, after treatment
Method in brief: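 A corn-field efficacy trial following GB/T 17980.42-2000 tested post-emergence control of Chenopodium album. Test compounds formulated as 10% emulsifiable concentrates were diluted in water and sprayed at 150 g(a.i.)/ha when the corn had 2 leaves to 5 leaves, on 20 m^2 plots with 4 replicates. Herbicidal activity was rated on a 1-9 scale by damage symptoms and severity.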

Acalypha australis = test: Field test for weed control in a corn field; conditions: 150 g a.i./ha, after treatment
Method in brief: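 Post-emergence field trial in a corn field following GB/T 17980.42-2000. Test compounds were formulated as 10% emulsifiable concentrates, diluted in water, and sprayed at 150 g(a.i.)/ha when corn had 2 to 5 leaves, with 4 replicates on 20 m^2 plots. Mesotrione 25% oil dispersion served as the control agent. Weed control was scored on a 1-9 scale.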

Barnyard grass [5] = test: Field test for weed control in a corn field; conditions: 150 g a.i./ha, 30 days after treatment
Method in brief: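 Corn-field efficacy trial following GB/T 17980.42-2000. Test compounds were formulated as 10% emulsifiable concentrates, diluted in water and sprayed post-emergence at 150 g(a.i.)/ha when corn had 2 to 5 leaves. Each treatment was replicated 4 times on 20 m^2 plots. Barnyard grass control was rated on a 1-9 damage scale.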

green bristlegrass [6] = test: Field test for weed control in a corn field; conditions: 150 g a.i./ha, after treatment
Method in brief: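 Post-emergence weed control was tested in a corn field following GB/T 17980.42-2000. When the corn had 2 leaves to 5 leaves after sowing, 10% emulsifiable concentrates diluted in water were sprayed at 150 g(a.i.)/ha on 20 m^2 plots, four replicates per treatment. Effects on green bristlegrass were scored on a 1-9 damage scale relative to the blank control area.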

nutgrass flatsedge = test: Field test for weed control in a corn field; conditions: 150 g a.i./ha, after treatment
Method in brief: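 A corn field efficacy trial following GB/T 17980.42-2000 assessed post-emergence control of nutgrass flatsedge. Test compounds were formulated as 10% emulsifiable concentrates, diluted in water, and sprayed at 150 g(a.i.)/ha when the corn had 2 to 5 leaves. Each treatment had 4 replicates on 20 m^2 plots. Herbicidal activity was graded on a 1-9 scale by damage symptoms and severity.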

Digitaria sanguinalis [7] = test: Field test for weed control in a corn field; conditions: 150 g a.i./ha, after treatment
Method in brief: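 Field trial in a corn field following GB/T 17980.42-2000. Test compounds were formulated as 10% emulsifiable concentrates, diluted in water and sprayed post-emergence at 150 g(a.i.)/ha when corn had 2 to 5 leaves, with 4 replicates on 20 m^2 plots. Control of Digitaria sanguinalis was scored on a 1-9 scale based on weed damage relative to the untreated blank area.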

Piemarker [8] = test: Herbicidal activity test for indoor pre-emergence soil treatment; parameters: key: level 1-9; higher = more weed remaining vs blank control; conditions: 150 g a.i./ha, visual inspection 21 days after treatment
Method in brief: as §1

Barnyard grass [9] = test: as above; parameters: key: level 1-9; higher = more weed remaining vs blank control; conditions: 150 g a.i./ha, visual inspection 21 days after treatment
Method in brief: as §1

green bristlegrass [10] = test: as above; parameters: key: level 1-9; higher = more weed remaining vs blank control; conditions: 150 g a.i./ha, visual inspection 21 days after treatment
Method in brief: as §1

Amaranthus retroflexus [11] = test: Herbicidal activity test for indoor post-emergence spraying on stems and leaves; parameters: key: grade level by weed remaining vs blank control, e.g. 5 = 10.1-15%; conditions: 150 g a.i./ha, visual inspection 21 days after treatment
Method in brief: (§2)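 Run per NY/T 1155.4-2006: weeds sown, grown in greenhouse, then sprayed post-emergence on stems and leaves. Effect scored visually 21 days after treatment on a graded level scale relative to weed in the blank control area.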

Piemarker [12] = test: as above; parameters: key: grade level by weed remaining vs blank control, e.g. 5 = 10.1-15%; conditions: 150 g a.i./ha, visual inspection 21 days after treatment
Method in brief: as §2

Barnyard grass [13] = test: as above; parameters: key: grade level by weed remaining vs blank control, e.g. 5 = 10.1-15%; conditions: 150 g a.i./ha, visual inspection 21 days after treatment
Method in brief: as §2

Humulus scandens [14] = test: as above; parameters: key: grade level by weed remaining vs blank control, e.g. 5 = 10.1-15%; conditions: 150 g a.i./ha, visual inspection 21 days after treatment
Method in brief: as §2

green bristlegrass [15] = test: as above; parameters: key: grade level by weed remaining vs blank control, e.g. 5 = 10.1-15%; conditions: 150 g a.i./ha, visual inspection 21 days after treatment
Method in brief: as §2

Digitaria sanguinalis [16] = test: as above; parameters: key: grade level by weed remaining vs blank control, e.g. 5 = 10.1-15%; conditions: 150 g a.i./ha, visual inspection 21 days after treatment
Method in brief: as §2

Cyperaceae = test: Post-emergence herbicidal activity test in a paddy field; parameters: key: level scale; higher level = more weed left vs blank control; conditions: 150 g a.i./ha (penoxsulam control 250 g(a.i.)/h)
Method in brief: (§3)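 Efficacy was visually estimated 15 and 30 days after spraying, grading weed coverage relative to an untreated neighbouring plot (level 2 = 0 to 2.5%, level 9 = 67.6 to 100%). Treatments were 150 g(a.i.)/ha from 10% emulsifiable concentrates applied at the 4-5 leaf rice stage, four repeats of 50 m^2 each.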

Broadleaf weed = test: as above; parameters: key: level scale; higher level = more weed left vs blank control; conditions: 150 g a.i./ha (penoxsulam control 250 g(a.i.)/h)
Method in brief: as §3

Gramineae = test: as above; parameters: key: level scale; higher level = more weed left vs blank control; conditions: 150 g a.i./ha (penoxsulam control 250 g(a.i.)/h)
Method in brief: as §3

| SMILES | Herbicidal Activity Humulus scandens (Humulus scandens [1]) | Herbicidal Activity Amaranthus retroflexus (Amaranthus retroflexus [2]) | Herbicidal Activity Digitaria sanguinalis (Digitaria sanguinalis [3]) | Post-emergence weed control effect, Amaranthus retroflexus (Amaranthus retroflexus [4]) | Post-emergence weed control effect, Solanum nigrum (Solanum nigrum) | Post-emergence weed control effect, Goose grass (goosegrass) | Post-emergence weed control effect, Portulaca oleracea (Portulaca oleracea) | Post-emergence weed control effect, Convolvulus arvensis (Convolvulus arvensis) | Post-emergence weed control effect, Chenopodium album (Chenopodium album) | Post-emergence weed control effect, Acalypha australis (Acalypha australis) | Post-emergence weed control effect, Barnyard grass (Barnyard grass [5]) | Post-emergence weed control effect, Green bristlegrass (green bristlegrass [6]) | Post-emergence weed control effect, Nutgrass flatsedge (nutgrass flatsedge) | Post-emergence weed control effect, Digitaria sanguinalis (Digitaria sanguinalis [7]) | Herbicidal Activity Piemarker (Piemarker [8]) | Herbicidal Activity Barnyard grass (Barnyard grass [9]) | Herbicidal Activity Green bristlegrass (green bristlegrass [10]) | Herbicidal Activity Amaranthus retroflexus (Amaranthus retroflexus [11]) | Herbicidal Activity Piemarker (Piemarker [12]) | Herbicidal Activity Barnyard grass (Barnyard grass [13]) | also measured |
| --- | --- | --- | --- | --- | --- | --- | --- | --- | --- | --- | --- | --- | --- | --- | --- | --- | --- | --- | --- | --- | --- |
| COc1ccc(OC)c(C(=O)NCc2cc(F)cc(Cl)c2)c1 [Compound A28] | 2 (equivalent to 0 to 2.5% of the weed in the blank control area) | 1 | 1 | 1 | 2 (equivalent to 0 to 2.5% of the weed in the blank control area) | 2 (equivalent to 0 to 2.5% of the weed in the blank control area) | 1 | 1 | 1 | 2 (equivalent to 0 to 2.5% of the weed in the blank control area) | 1 | 1 | 2 (equivalent to 0 to 2.5% of the weed in the blank control area) | 2 (equivalent to 0 to 2.5% of the weed in the blank control area) | 1 | 1 | 1 | 1 | 1 | 1 | Herbicidal Activity Humulus scandens (Humulus scandens [14]): 1; Herbicidal Activity Green bristlegrass (green bristlegrass [15]): 1; Herbicidal Activity Digitaria sanguinalis (Digitaria sanguinalis [16]): 1; Herbicidal activity 15 days after treatment Cyperaceae (Cyperaceae): 2 (equivalent to 0 to 2.5% of the weed in the blank control area); Herbicidal activity 30 days after treatment Cyperaceae (Cyperaceae): 1; Herbicidal activity 15 days after treatment Broadleaf weed (Broadleaf weed): 1; Herbicidal activity 30 days after treatment Broadleaf weed (Broadleaf weed): 1; Herbicidal activity 15 days after treatment Gramineae (Gramineae): 2 (equivalent to 0 to 2.5% of the weed in the blank control area); Herbicidal activity 30 days after treatment Gramineae (Gramineae): 1 |
| COc1ccc(OC)c(C(=O)NCc2cc(Cl)cc(Cl)c2)c1 [Compound A29] | 2 (equivalent to 0 to 2.5% of the weed in the blank control area) | 1 | 2 (equivalent to 0 to 2.5% of the weed in the blank control area) | 1 | 2 (equivalent to 0 to 2.5% of the weed in the blank control area) | 2 (equivalent to 0 to 2.5% of the weed in the blank control area) | 1 | 2 (equivalent to 0 to 2.5% of the weed in the blank control area) | 1 | 1 | 1 | 2 (equivalent to 0 to 2.5% of the weed in the blank control area) | 2 (equivalent to 0 to 2.5% of the weed in the blank control area) | 2 (equivalent to 0 to 2.5% of the weed in the blank control area) | 1 | 1 | 1 | 1 | 1 | 1 | Herbicidal Activity Humulus scandens (Humulus scandens [14]): 1; Herbicidal Activity Green bristlegrass (green bristlegrass [15]): 1; Herbicidal Activity Digitaria sanguinalis (Digitaria sanguinalis [16]): 1; Herbicidal activity 15 days after treatment Cyperaceae (Cyperaceae): 1; Herbicidal activity 30 days after treatment Cyperaceae (Cyperaceae): 2 (equivalent to 0 to 2.5% of the weed in the blank control area); Herbicidal activity 15 days after treatment Broadleaf weed (Broadleaf weed): 1; Herbicidal activity 30 days after treatment Broadleaf weed (Broadleaf weed): 1; Herbicidal activity 15 days after treatment Gramineae (Gramineae): 2 (equivalent to 0 to 2.5% of the weed in the blank control area); Herbicidal activity 30 days after treatment Gramineae (Gramineae): 1 |
